Source: US5336485A, “Method for protecting animals against tacrine induced cytotoxic injury using sterol compounds” (priority 1993, dated 1994)
Where a name gives a salt, the structure may show the parent alone. Read-outs that look alike come from different tables or passages of the source.

Columns and labels:
[1] = Tissue distribution of alpha-tocopherol and alpha-tocopherol ester in rats; assay type: in vivo, rat; conditions: K+ salt in saline, 1 dose 100 mg/kg, 24 h
Protocol: 100 mg/kg body weight of a tocopherol analog was administered to Sprague-Dawley rats using a peanut oil:ethanol vehicle (3:2). Twenty four hours later the rats were sacrificed and the accumulation of the tocopherol analog in the liver was determined.
A similar in vivo experiment to that discussed in conjunction with Table 5 was performed to determine if other tissues accumulate alpha-TS. Male Sprague-Dawley rats were given a 100 mg/kg dose of alpha-TS using a variety of chemical forms and vehicles. A variety of techniques were used to administer the alpha-TS. Twenty four hours later the rats were sacrificed and the tissues were tested for alpha-TS accumulation.

rat hepatocytes [2] = assay: EMS-induced cytotoxicity (LDH leakage/cell death) in rat hepatocyte suspensions; conditions: for Percent Cytoprotection / inhibition at 25 µM: 5 h; for inhibition at 25 µM: Rattus norvegicus, Hepatocyte; for Cell Death: 5 Hrs, alpha-TS 25, methyl ester 50, cholesteryl succinate 100, monomethyl/dimethyl succinate 250 μM
Protocol: To determine if alpha-TS is a cytoprotective agent under physiological conditions, liver cells were incubated with Waymouth's medium containing approximately 1 mM extracellular Ca^2+ in the presence and absence of alpha-TS.
(§1) At each time-point, rapid separation of viable from non-viable hepatocytes and medium was accomplished by the dibutyl phthalate centrifugation method. Cell viability was monitored hourly by measuring LDH leakage with a Cobas Analyzer and intracellular [K^+ ]with a flame photometer. LDH was routinely measured in the medium while intracellular K^+ was measured in the 10% perchloric acid lysate of viable cells. Lipid peroxidation was determined by measuring TBA reactants in the medium. […] The samples were diluted with 0.3 ml 1% ascorbate in 0.1 M SDS, 0.4 ml ethanol, sonicated and extracted once with 0.8 ml hexane. Next, the hexane extract was evaporated to dryness with N2, the residue dissolved in 2.5% ascorbate in methanol (1 ml) and analyzed (100 μl) by high-performance liquid chromatograph (HPLC). […] The mobile phase, 95% MeOH was run isocratically and the HPLC retention times for delta and alpha-tocopherol were approximately eleven and sixteen minutes, respectively. […] Following the addition of 0.2 ml 4 M HC1, the neutralized KOH-MeOH extracted with 0.8 ml hexane. […] A standard curve for each tocopherol congener was run with every assay. […] Only viable cells were monitored in the laboratory procedures.
To determine the relative cytoprotective potency of various tocopherol derivatives, the effect of varying doses of a tocopherol analog on the protection against EMS-induced toxicity was examined in vitro on rat hepatocyte suspensions. Specifically, the following ionizable tocopherol congeners were tested: alpha-TS, alpha tocopheryl glutarate (alpha-TG), and alpha tocopheryl phosphate (alpha-TP). […] 0.1 nmoles is the lower detection limit.
In vitro experiments were conducted with a variety of different tocopherol and succinate analogs to determine which were protective against EMS induced toxicity. After five hours of incubation with 50 mM EMS and 25μM of a tocopherol or succinate analog, cytoprotection was determined by comparing the percentage of LDH leakage from control hepatocytes (vehicle only, assumed 100% protection) with the EMS only treated cells (assumed 0% protection).
An in vitro experiment with rat hepatocyte suspensions was performed to determine the effect of esterase inhibitors on alpha-TS.
(§2) Rat hepatocyte suspensions were subjected to 50 mM EMS and the percentage of cell death, the percentage of intracellular K^+ (a metabolic parameter as discussed above), the depletion of ATP and the effect on lipid peroxidation were monitored.

male Sprague-Dawley rats = assay: CCl4 induced lethality in rats; assay type: in vivo, rat; conditions: for Survival after CCl4 treatment: 100 mg/kg ip 24 h prior, […] CCl4 oral; for Days Survived after CCl4: 24 and 1 hour prior
Protocol: The in vivo effect of alpha-TS was tested by administering a lethal oral dose of carbon tetrachloride (CC14) to male Sprague-Dawley rats.
In the experiment described in Table 3, a single dose of alpha-TS dissolved in peanut oil:ethanol (3:2) was given to male Sprague-Dawley rats. The dose was given 24 hours prior to an orally administered CCl4 challenge dissolved in peanut oil. Two to nine animals were tested per treatment. The control group comprised rats pretreated with the vehicle only. Survival was monitored for at least 7 days after the toxic insult.
In vivo experiments were performed to determine if the time the ionizable tocopherol analog (alpha-TS) is administered affects the cytoprotective functions. Male Sprague-Dawley rats were given a 100 mg/kg intraperitoneal dose of a tocopherol or succinate analog and were given a lethal dose of CCl4 (2.9g/kg by oral gavage). Table 7 contrasts the times of administration of the tocopherol or succinate analog and the times of administration of the lethal dose of CCl4 with the survival of the rats in the study (3to 6 rats per protective treatment).
Several tocopherol and succinate analogs were tested for CCl4 induced lethality. A single dose of the tocopherol or succinate analog was administered twenty four hours prior to orally administering 2.9 g CCl4 /kg body weight. Three to six animals were analyzed per treatment. The rats were monitored for seven days. […]

rat hepatocytes [3] = assay: EMS-induced lipid peroxidation in rat hepatocyte suspensions; assay type: cell-based; conditions: 50 mM EMS, 5 Hrs; concentrations as cell death (Table 15)
Protocol: as §1, §2

liver = assay: CCl4 induced hepatotoxicity in rats (serum AST/ALT); assay type: in vivo, rat
Protocol: In vivo experiments were performed to determine if alpha-TS administration protects the liver from chemical toxicity. The liver is the target organ for CCl4. CCl4 is a hepatotoxic agent that induces centrilobular liver necrosis through its metabolism to free radicals. Male Sprague-Dawley rats were given an intraperitoneal dose (100 mg/kg) of a tocopherol analog 24 hours prior to a CCl4 challenge (2.9g/kg given by oral garage). Forty eight hours after the challenge, the rats were sacrificed and the levels of aspartate aminotransferase (AST) and alanine aminotransferase (ALT) were measured.
As discussed above, SGOT levels provide a clinical assessment of hepatotoxicity (liver damage).
Succinate analogs were administered to male Sprague-Dawley rats 20 hours prior to a 1 g CCl4 /kg body weight oral challenge and the AST and ALT serum enzyme levels were measured 48 hours after the challenge.
Similar to the experiments were described above, the ionizable congeners were administered to Sprague-Dawley rats by i.p. injection of a 100 mg ionizable congener/kg body weight dose 20 hours prior to oral administration of a 1 g/kg dose of CCl4, and the AST and ALT levels were measured 48 hours after the CCl4 challenge.

[4] = 100 mg/kg, single dose 24 h prior, CCl4 […]
[5] = read-out: Percent Cytoprotection, 25 μM, 50 mM EMS, 5 h
[6] = 1 g/kg, single dose 24 h prior, CCl4 […]
[7] = 100 mg/kg ip, 48 h after 1 g/kg CCl4 (Table 31)

For `Cc1c(C)c2c(c(C)c1OC(=O)CCC(=O)O)CC[C@@](C)(CCC[C@H](C)CCC[C@H](C)CCCC(C)C)O2` [K + salt of Alpha-TS, Alpha-Tocopherol Succinate, K^+ Salt], the “alpha-TS, Blood” value ([1]; (c) ip) was 19 nmoles/gm of Tissue, the “alpha-TS, Heart” value ([1]; (c) ip) was 18 nmoles/gm of Tissue and the “alpha-TS, Kidney” value ([1]; (c) ip) was 15 nmoles/gm of Tissue. The “alpha-TS, Liver” value ([1]; (c) ip) was 518 nmoles/gm of Tissue, the “alpha-TS, Lung” value ([1]; (c) ip) was 60 nmoles/gm of Tissue and the “alpha-TS, Plasma” value ([1]; (c) ip) was 24 nmoles/gm of Tissue. For the same molecule, the “alpha-TS, Blood” value ([1]; (d) iv) was 18 nmoles/gm of Tissue, the “alpha-TS, Heart” value ([1]; (d) iv) was 24 nmoles/gm of Tissue and the “alpha-TS, Kidney” value ([1]; (d) iv) was 27 nmoles/gm of Tissue. The “alpha-TS, Liver” value ([1]; (d) iv) was 445 nmoles/gm of Tissue, the “alpha-TS, Lung” value ([1]; (d) iv) was 385 nmoles/gm of Tissue and the “alpha-TS, Plasma” value ([1]; (d) iv) was 30 nmoles/gm of Tissue. The “Percent Cytoprotection” value (rat hepatocytes [2]; 25 μM, 50 mM EMS, K^+ Salt, 300 min, 25 µM) was 97 ± 3% and the “Days Survived After CCl4 Treatment” value (male Sprague-Dawley rats; [4]) was greater than 7 days.
In the case of `Cc1c(C)c2c(c(C)c1OC(=O)CCCC(=O)O)CCC(C)(CCCC(C)CCCC(C)CCCC(C)C)O2` (stereo not drawn) [Alpha-Tocopherol Glutarate, alpha-tocopherol monoglutarate], the inhibition at 25 µM (rat hepatocytes [2]; [5]) is reported as 55 ± 15%, the “Survival after CCl4 treatment” value (male Sprague-Dawley rats) is reported as “No” and the “Days Survived After CCl4 Treatment” value (male Sprague-Dawley rats; [4]) is reported as 2 days.
With `COC(=O)CCC(=O)OC` [Dimethyl Succinate, reference compound] the “Lipid Peroxidation” value (rat hepatocytes [3]) was 12.6 ± 0.2 nmolMDA/10^6 cells, the “Cell Death” value (rat hepatocytes [2]; 50 mM EMS) was 60 ± 1% and the “Days Survived after CCl4” value (male Sprague-Dawley rats; 1 g/kg) was 2 days. The “Days Survived After CCl4 Treatment” value (male Sprague-Dawley rats; [6]) was 2 days and the “cytoprotection (Table 7, in words)” value (male Sprague-Dawley rats; rat, in vivo) was “not cytoprotective”.
For `COC(=O)CCC(=O)O` [Monomethyl Succinate, reference compound], the “Lipid Peroxidation” value (rat hepatocytes [3]) was 12.8 ± 1.0 nmolMDA/10^6 cells, the “Cell Death” value (rat hepatocytes [2]; 50 mM EMS) was 61 ± 5% and the “Days Survived after CCl4” value (male Sprague-Dawley rats; 1 g/kg) was 2 days. The “Days Survived After CCl4 Treatment” value (male Sprague-Dawley rats; [6]) was 2 days.
In the case of `Cc1c(C)c2c(c(C)c1OC(=O)CC(C)C(=O)O)CC[C@@](C)(CCC[C@H](C)CCC[C@H](C)CCCC(C)C)O2` (stereo partly drawn) [Alpha-Tocopherol 3-Methyl Succinate, alpha-tocopheryl 3-methyl succinate], the inhibition at 25 µM (rat hepatocytes [2]; [5]) is reported as 70 ± 9%, the “Survival after CCl4 treatment” value (male Sprague-Dawley rats) is reported as “No” and the “Days Survived After CCl4 Treatment” value (male Sprague-Dawley rats; [4]) is reported as 2 days.
Work on `Cc1c(C)c2c(c(C)c1OC(=O)CCC(N)=O)CC[C@@](C)(CCC[C@H](C)CCC[C@H](C)CCCC(C)C)O2` [Alpha-Tocopherol Succinamide] yielded an inhibition at 25 µM (rat hepatocytes [2]; [5]) of 0%.
For `CC(C)CCC[C@@H](C)[C@H]1CC[C@H]2[C@@H]3CC=C4C[C@@H](O)CC[C@]4(C)[C@H]3CC[C@]12C` [Cholesterol, reference compound], the inhibition at 25 µM (rat hepatocytes [2]; [5]) was 30 ± 16%, the ALT (liver; [7]) was 1.16 ± 0.41 10^3 units/L and the AST (liver; [7]) was 3.03 ± 0.84 10^3 units/L. The “SGOT Levels” value (liver; 100 mg/kg ip, 48 h after 1.0 g/kg CCl4) was 4.08 ± 2.45 10^3 units/L, the “protection against CCl4 hepatotoxicity (in words)” value (liver; rats, serum enzyme levels) was “provided no protection” and the “Survival after CCl4 treatment” value (male Sprague-Dawley rats) was “No”. For the same molecule, the “Days Survived After CCl4 Treatment” value (male Sprague-Dawley rats; [4]) was 2 days.
`Cc1cc(O)cc2c1OC(C)(CCCC(C)CCCC(C)CCCC(C)C)CC2` (centres unmarked) [Delta-Tocopherol, reference compound] showed an inhibition at 25 µM (rat hepatocytes [2]; read-out: Percent Cytoprotection) of 0%.
For `Cc1cc(OC(=O)CCC(=O)O)cc2c1OC(C)(CCCC(C)CCCC(C)CCCC(C)C)CC2` (centres unmarked) [Delta-Tocopherol Succinate, Delta-tocopherol mono succinate], the inhibition at 25 µM (rat hepatocytes [2]; [5]) was 70 ± 24%.
In the case of “d-alpha-tocopheryl polyethylene glycol 1,000 succinate”, the “Percent Cytoprotection” value (rat hepatocytes [2]; 25 μM, 50 mM EMS) is reported as 80 ± 15%, the “protection from lethal effects of EMS” value (rat hepatocytes [2]; rat hepatocytes, 25 μM, 50 mM EMS) is reported as “protection was observed against EMS-induced toxicity” and the “Days Survived After CCl4 Treatment” value (male Sprague-Dawley rats; 200 mg/Kg, iv, 24 h prior) is reported as greater than 7 days. For the same molecule, the “Days Survived After CCl4 Treatment” value (male Sprague-Dawley rats; 200 mg/kg, oral, 24 h prior) was 2 days and the “Days Survived After CCl4 Treatment” value (male Sprague-Dawley rats; 100 or 200 mg/Kg, single dose 24 h prior) was greater than 7 days.
